Test results published in article PMC6001238, “Iterative Chemical Engineering of Vancomycin Leads to Novel Vancomycin Analogs With a High in Vitro Therapeutic Index” (Frontiers in Microbiology, 2018).
Values after ≈ are worked out from the molar mass of the structure shown.

Key:
[1] = system: S. aureus VSSA (ATCC 6538); assay: MIC, broth microdilution, vancomycin-sensitive S. aureus (VSSA/MSSA, ATCC 6538); format: cell-based, Staphylococcus aureus; conditions: for MIC: Staphylococcus aureus VSSA, read-out: MIC; for MIC-fold improvement vs. vancomycin: VSSA, ratio of MIC of vancomycin and MIC of analogue
Procedure, shortened: (§1)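 Assayed by broth microdilution under CLSI antimicrobial testing rules. One case paired the analog or control drug with vancomycin at a 10 μM final concentration; water and inoculum-free broth were controls.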

MRSA KS2 = assay: MIC, broth microdilution, MRSA KS2; format: cell-based, Staphylococcus aureus; conditions: for MIC-fold improvement vs. vancomycin: MRSA KS2, ratio of MIC of vancomycin and MIC of analogue; for MIC: Staphylococcus aureus MRSA KS2, read-out: MIC
Experimental: (§2) The minimum inhibitory concentration (MIC) was determined using the broth microdilution method according to the antimicrobial susceptibility testing standards of the clinical and laboratory standards institute ([Clinical and Laboratory Standards Institute [CLSI], 2012]). Ultrapure water and non-inoculated broth were used as controls. In one case, a final concentration of 10 μM vancomycin was included with the vancomycin analog or control antibiotic.

[2] = system: human cervix carcinoma (HeLa) cells; assay: Cytostatic activity, HeLa cell proliferation; format: cell-based; conditions: mean ± SD of three experiments; highest concentration tested 250 µM; 4 days; read-out: Toxicity (IC50) HeLa
Procedure, shortened: (§3)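 Readout: Coulter cell number after drug exposure at 37°C. Durations differ by line (L1210 2 days; CEM 3 days; HeLa 4 days). Stock suspension 300,000–500,000 cells/mL, diluted by mixing with compound. Endpoint: IC50 vs negative control.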

E. faecalis VRE 37 = assay: MIC, broth microdilution, vancomycin-resistant E. faecalis VRE 37 (VanA); format: cell-based, Enterococcus faecalis; conditions: for MIC: Enterococcus faecalis VRE 37 (vancomycin-resistant), read-out: MIC
Procedure, shortened: as §1

[3] = system: Murine leukemia (L1210) cells; assay: Cytostatic activity, L1210 cell proliferation; format: cell-based; conditions: mean ± SD of three experiments; highest concentration tested 250 µM; 2 days; read-out: Toxicity (IC50) L1210
Procedure, shortened: as §3

E. faecalis VSE 1 = assay: MIC, broth microdilution, vancomycin-sensitive E. faecalis (VSE 1); format: cell-based, Enterococcus faecalis; conditions: for MIC: Enterococcus faecalis VSE 1 (vancomycin-sensitive), read-out: MIC; for MIC-fold improvement vs. vancomycin: VSE 1, ratio of MIC of vancomycin and MIC of analogue
Procedure, shortened: as §1

MRSA KS6 = assay: MIC, broth microdilution, MRSA KS6; format: cell-based, Staphylococcus aureus; conditions: for MIC-fold improvement vs. vancomycin: MRSA KS6, ratio of MIC of vancomycin and MIC of analogue; for MIC: Staphylococcus aureus MRSA KS6, read-out: MIC
Experimental: as §2

S. aureus VISA/HIP5827 = assay: MIC, broth microdilution, vancomycin-intermediate S. aureus VISA HIP5827; format: cell-based, Staphylococcus aureus; conditions: for MIC: Staphylococcus aureus VISA/HIP5827, read-out: MIC; for MIC-fold improvement vs. vancomycin: VISA/HIP5827, ratio of MIC of vancomycin and MIC of analogue
Procedure, shortened: as §1

MRSA KS1 = assay: MIC, broth microdilution, MRSA KS1; format: cell-based, Staphylococcus aureus; conditions: for MIC-fold improvement vs. vancomycin: MRSA KS1, ratio of MIC of vancomycin and MIC of analogue; for MIC: Staphylococcus aureus MRSA KS1, read-out: MIC
Experimental: as §2

E. faecalis VRE 29 = assay: MIC, broth microdilution, vancomycin-resistant E. faecalis VRE 29 (VanA); format: cell-based, Enterococcus faecalis; conditions: for MIC: Enterococcus faecalis VRE 29 (vancomycin-resistant), read-out: MIC
Procedure, shortened: as §1

E. faecalis VRE 53 = assay: MIC, broth microdilution, vancomycin-resistant E. faecalis VRE 53 (VanA); format: cell-based, Enterococcus faecalis; conditions: for MIC: Enterococcus faecalis VRE 53 (vancomycin-resistant), read-out: MIC; for MIC-fold improvement vs. vancomycin: VRE 53, ratio of MIC of vancomycin and MIC of analogue
Procedure, shortened: as §1

E. faecalis VRE 6 = assay: MIC, broth microdilution, vancomycin-resistant E. faecalis VRE 6 (VanA); format: cell-based, Enterococcus faecalis; conditions: for MIC: Enterococcus faecalis VRE 6 (vancomycin-resistant), read-out: MIC; for MIC-fold improvement vs. vancomycin: VRE 6, ratio of MIC of vancomycin and MIC of analogue
Procedure, shortened: as §1

MRSA KS89 = assay: MIC, broth microdilution, MRSA KS89; format: cell-based, Staphylococcus aureus; conditions: for MIC-fold improvement vs. vancomycin: MRSA KS8, ratio of MIC of vancomycin and MIC of analogue; for MIC: Staphylococcus aureus MRSA KS8, read-out: MIC
Procedure, shortened: as §1

S. aureus VRSA = assay: MIC, broth microdilution, vancomycin-resistant S. aureus (VRSA); format: cell-based, Staphylococcus aureus; conditions: for MIC: Staphylococcus aureus VRSA, read-out: MIC; for MIC-fold improvement vs. vancomycin: VRSA, ratio of MIC of vancomycin and MIC of analogue
Procedure, shortened: as §1

[4] = system: human T-lymphocyte (CEM) cells; assay: Cytostatic activity, CEM cell proliferation; format: cell-based; conditions: mean ± SD of three experiments; highest concentration tested 250 µM; 3 days; read-out: Toxicity (IC50) CEM
Procedure, shortened: as §3

[5] = system: L1210, CEM and HeLa cell lines; assay: Cytostatic activity, average or summary over L1210, CEM and HeLa; format: cell-based; conditions: average of L1210, CEM and HeLa; read-out: Toxicity (IC50) Average
Procedure, shortened: as §3

SMILES	MIC [1]	MIC-fold improvement vs. vancomycin [1]	MIC-fold improvement vs. vancomycin (MRSA KS2)	MIC (MRSA KS2)	IC50 [2]	MIC (E. faecalis VRE 37)	IC50 [3]	MIC (E. faecalis VSE 1)	MIC-fold improvement vs. vancomycin (E. faecalis VSE 1)	MIC-fold improvement vs. vancomycin (MRSA KS6)	MIC (MRSA KS6)	MIC (S. aureus VISA/HIP5827)	MIC-fold improvement vs. vancomycin (S. aureus VISA/HIP5827)	MIC-fold improvement vs. vancomycin (MRSA KS1)	MIC (MRSA KS1)	MIC (E. faecalis VRE 29)	MIC (E. faecalis VRE 53)	MIC-fold improvement vs. vancomycin (E. faecalis VRE 53)	MIC (E. faecalis VRE 6)	MIC-fold improvement vs. vancomycin (E. faecalis VRE 6)	also measured
CNC(CC(C)C)C(=O)NC1C(=O)NC(CC(N)=O)C(=O)NC2C(=O)NC3C(=O)NC(C(=O)NC(C(=O)NCCCNC(=O)c4ccc5cc(NS(=O)(=O)c6ccccc6)ccc5c4)c4cc(O)cc(O)c4-c4cc3ccc4O)C(O)c3ccc(c(Cl)c3)Oc3cc2cc(c3OC2OC(CO)C(O)C(O)C2OC2CC(C)(N)C(O)C(C)O2)Oc2ccc(cc2Cl)C1O (stereo not drawn) [Vanc-63]	0.39 µM (≈ 0.708 µg/mL)	2	2	0.39 µM (≈ 0.708 µg/mL)	69 ± 74 µM	12.5 µM (≈ 22.7 µg/mL)	> 250 µM	0.39 µM (≈ 0.708 µg/mL)	4	2	0.39 µM (≈ 0.708 µg/mL)	0.78 µM (≈ 1.42 µg/mL)	8	2	0.39 µM (≈ 0.708 µg/mL)	6.25 µM (≈ 11.3 µg/mL)	25 µM (≈ 45.4 µg/mL)	16	3.13 µM (≈ 5.68 µg/mL)	64	MIC-fold improvement vs. vancomycin (E. faecalis VRE 29; VRE 29, ratio of MIC of vancomycin and MIC of analogue): 64; MIC-fold improvement vs. vancomycin (MRSA KS89): 2; MIC (MRSA KS89): 0.39 µM (≈ 0.708 µg/mL); MIC (S. aureus VRSA): 0.78 µM (≈ 1.42 µg/mL); MIC-fold improvement vs. vancomycin (S. aureus VRSA): 128; IC50 [4]: ≥ 250 µM; IC50 [5]: 190 µM
CNC(CC(C)C)C(=O)NC1C(=O)NC(CC(N)=O)C(=O)NC2C(=O)NC3C(=O)NC(C(=O)NC(C(=O)NCC(=O)Nc4ccc(-c5ccc(C(C)=O)cc5)cc4)c4cc(O)cc(O)c4-c4cc3ccc4O)C(O)c3ccc(c(Cl)c3)Oc3cc2cc(c3OC2OC(CO)C(O)C(O)C2OC2CC(C)(N)C(O)C(C)O2)Oc2ccc(cc2Cl)C1O (stereo not drawn) [Vanc-85]	0.20 µM (≈ 0.34 µg/mL)	4	4	0.20 µM (≈ 0.34 µg/mL)	94 ± 12 µM	3.13 µM (≈ 5.32 µg/mL)	31 ± 9 µM	≤0.05 µM	≥32	2	0.39 µM (≈ 0.663 µg/mL)	0.78 µM (≈ 1.33 µg/mL)	8	8	0.10 µM (≈ 0.17 µg/mL)	1.56 µM (≈ 2.65 µg/mL)	12.5 µM (≈ 21.2 µg/mL)	32	0.78 µM (≈ 1.33 µg/mL)	256	MIC-fold improvement vs. vancomycin (E. faecalis VRE 37; VRE 37, ratio of MIC of vancomycin and MIC of analogue): 128; MIC-fold improvement vs. vancomycin (MRSA KS89): 4; MIC (MRSA KS89): 0.20 µM (≈ 0.34 µg/mL); MIC (S. aureus VRSA): 1.56 µM (≈ 2.65 µg/mL); MIC-fold improvement vs. vancomycin (S. aureus VRSA): 64; IC50 [4]: 5.6 ± 0.6 µM; IC50 [5]: 44 µM
